How the values were obtained:
[1] = (§1) Bioavailability in rat; type: ADME, organism-based; details: in vivo
[2] = as §1; type: ADME, organism-based; details: in vivo; remark: listed apart in the source
[3] = as §1; type: ADME, organism-based; details: in vivo; remark: listed apart in the source
[4] = as §1; type: ADME, organism-based; details: in vivo; remark: listed apart in the source
[5] = as §1; type: ADME, organism-based; details: in vivo; remark: listed apart in the source
[6] = as §1; type: ADME, organism-based; details: in vivo; remark: listed apart in the source
[7] = Relative bioavailability in jejunum closed loop study in rats; Mean of 4 exp; type: ADME, organism-based; details: rat, in vivo, other
[8] = Relative bioavailability in stomach closed loop study in rats; Mean of 4 exp; type: ADME, organism-based; details: rat, in vivo; read-out: Relative Bioavailability
Mus musculus [9] = assay: Analgesic activity against mice in acetylcholine induced mice writhing test when dosed at 50 umol/kg (ig) administration after 40 min; type: functional
Mus musculus [10] = assay: Analgesic activity against mice in acetylcholine induced mice writhing test when dosed at 50 umol/kg (ig) administration after 80 min; type: functional
Mus musculus [11] = assay: Analgesic activity against mice in hot plate test when dosed at 100 umol/kg intraperitoneally; type: functional
Mus musculus [12] = assay: Analgesic activity in hot plate test when dosed at 100 umol/kg intraperitoneally; type: functional

| Structure (SMILES) | bioavailability [1] [%] | F [2] [%] | bioavailability [3] [%] | F [4] [%] | bioavailability [5] [%] | bioavailability [6] [%] | Relative Bioavailability [7] [%] | bioavailability [8] [%] | Activity (Mus musculus [9]) | Activity (Mus musculus [10]) | Activity (Mus musculus [11]) | bioavailability [2] [%] | F [3] [%] | bioavailability [4] [%] | Activity (Mus musculus [12]) |
| --- | --- | --- | --- | --- | --- | --- | --- | --- | --- | --- | --- | --- | --- | --- | --- |
| CCC1(c2cccc(OC(=O)c3c(C)cccc3N)c2)CCCCN(C)C1 (stereo unspecified) | 136 | 174.27 | 120 | 167.97 | 130 | 149 |  |  |  |  |  |  |  |  |  |
| CCC1(c2cccc(OC(=O)c3c(C)cccc3N)c2)CCCCN(C)C1.Cl (stereo unspecified) |  |  |  |  |  |  | 562.72 | 65.4 |  |  |  |  |  |  |  |
| CCC1(c2cccc(OC(=O)c3ccccc3N)c2)CCCCN(C)C1 (stereo unspecified) | 107 |  |  |  | 59.8 | 80.4 |  |  | 1 | 0 | 3 | 101 | 183.64 | 81.9 |  |
| CCC1(c2cccc(OC(=O)c3ccccc3)c2)CCCCN(C)C1 (stereo unspecified) | 112 |  | 53.9 |  | 75.4 | 133 |  |  | 2 | 2 |  | 58.1 |  | 81.6 | 4 |

Source: ChEMBL document CHEMBL1139557, “Synthesis and relative bioavailability of meptazinol benzoyl esters as prodrugs” (Bioorg Med Chem Lett, 2005)
